Assays:
[1] = pKa determination by titration with H2SO4 in water; format: physicochemical; conditions: 0.5 N H2SO4, water as solvent
Protocol: pKa. pKa values are determined by titration using 0.5 NH2SO4 as titrant with water as solvent. Duplicate analyses are performed.

[2] = Freeze-thaw cycles of paint samples, Krebs Stormer viscosity; conditions: for Initial Viscosity (KU): paint of Table 5, additive post-added at 2 wt %, before freeze-thaw
Protocol: The paint formulations are prepared using F/T agent 1 as shown by structures below. The octanol water partition coefficient is calculated using the method of Moriguchi et al., Chem. Pharm. Bull. 40(1), 127-130 (1992). The calculated octanol-water partition coefficient for F/T-1 is 0.69. […] Paint samples are frozen at −18° C. for 17 hours and then thawed at 25° C. for 7 hours. This constitutes 1 complete freeze-thaw cycle. Viscosities are measured after each freeze-thaw cycle using a Krebs Stormer Viscometer from Sheen at room temperature. The viscosity is measured in Krebs unit (KU). The results of freeze-thaw cycles on paint samples that contain a zero-VOC compound of the invention as a post-add are listed in the Table 6. The post-add compound is mixed at 2 wt % in the paint samples. The same paint formulation is used in preparing all the samples. The paint sample without any post-add is designated as “Blank.”
The KU values below 150 as reported in Table 9 are considered acceptable, and all the values (other than that for the Blank) reported are considered very acceptable.

[3] = VOC according to ASTM D6886-rev gas chromatography method; format: physicochemical; conditions: for Percent VOC measured on the crude amine sample: ASTM D6886-rev, value attributed to impurities / residual amine; for VOC classification according to ASTM D6886-rev protocol: pure compound
Protocol: “Zero or low VOC compound” and like terms mean that a particular aminoalcohol compound of the invention passes the criteria set forth by one or more gas chromatography methods, such as ASTM D6886-rev method, ISO 11890 or GB 18581. ASTM D6886-rev method is preferred.
VOC. VOC properties are tested according to the ASTM D6886-rev method.

[4] = additive 2 wt %, cycle = −18° C. 17 hours, 25° C. 7 hours

Question: For `OCCN(CCO)C1CCCCC1O` (stereo not shown) [DEA-CyHO, 2,2′-((2-hydroxycyclohexyl)azanediyl)diethanol], which pKa [1] is on record?
Answer: 8.6

Question: With `CC(C)(C)CC(C)(C)N(CC(O)CO)CC(O)CO` (stereo not shown) [F/T Agent 1] as the molecule, how does the “Viscosity after Freeze-Thaw cycles (KU), 1st cycle” value [2, 4] read?
Answer: 92.6 KU

Question: What about the “Viscosity after Freeze-Thaw cycles (KU), 2nd cycle” value [2, 4] of the same molecule?
Answer: 100.8 KU

Question: And the “Viscosity after Freeze-Thaw cycles (KU), 3rd cycle” value [2, 4]?
Answer: 103.1 KU

Question: And the “Viscosity after Freeze-Thaw cycles (KU), 4th cycle” value [2, 4]?
Answer: 104.2 KU

Question: And the “Viscosity after Freeze-Thaw cycles (KU), 5th cycle” value [2, 4]?
Answer: 105.3 KU

Question: And the “Freeze-thaw survival of paint samples” value ([2]; additive as post-add)?
Answer: survive five freeze-thaw cycles

Question: What about the “Initial Viscosity (KU)” value [2] of the same molecule?
Answer: 85.2 KU

Question: Which results are given for `CC(C)(C)CC(C)(C)N(CC(O)CO)CC(O)CO` (stereo not shown) [3,3′-((2,4,4-trimethylpentan-2-yl)azanediyl)bis(propane-1,2-diol)]?
Answer: pKa [1]: 9; Percent VOC measured on the crude amine sample [3]: 3.6%; VOC classification according to ASTM D6886-rev protocol [3]: zero VOC

Question: Which pKa [1] does the source give for `CC(O)CNC(CO)(CO)CO` (stereo not shown) [TA-1PO, 2-(hydroxymethyl)-2-((2-hydroxypropyl)amino)propane-1,3-diol] here?
Answer: 8

Question: For `CC(C)OCC(O)CNC(CO)(CO)CO` (stereo not shown) [TA-IPM, 2-((2-hydroxy-3-isopropoxypropyl)amino)-2-(hydroxymethyl)propane-1,3-diol], which pKa [1] is on record?
Answer: 7.8

Question: And the “Percent VOC measured on the crude amine sample” value [3]?
Answer: 8.7%

Question: And the “VOC classification according to ASTM D6886-rev protocol” value [3]?
Answer: zero VOC

Question: For `CCC(O)CN(CC(O)CC)C(C)(C)CO` (stereo not shown) [AMP-2BO, 1,1′-((1-hydroxy-2-methylpropan-2-yl)azanediyl)bis(butan-2-ol)], which pKa [1] is on record?
Answer: 9.1

Question: With `CCC(O)CNC(CC)(CO)CO` (stereo not shown) [AEPD-1BO, 2-ethyl-2-((2-hydroxybutyl)amino)propane-1,3-diol] as the molecule, how does the pKa [1] read?
Answer: 8.7

Question: Which “Viscosity after Freeze-Thaw cycles (KU), 5th cycle” value [2, 4] does the source give for `OCCOCCO` [Diethylene Glycol, diethylene glycol, reference compound] here?
Answer: 98 KU

Question: And the “Initial Viscosity (KU)” value [2]?
Answer: 91.0 KU

— patent US9605163B2, “Aminoalcohol compounds and their use as zero or low VOC additives for paints and coatings” (ANGUS CHEMICAL COMPANY, priority 2011, dated 2017)
